Experimental data reported in patent US9839634B2 (priority 2012, dated 2017).
Like-named read-outs stand apart in the source and are kept apart here.

How the values were obtained:
[1] = test system: Staphylococcus aureus ATCC12600; type: cell-based
Procedure: Spontaneous resistance frequencies in Staphylococcus aureus were determined by plating defined numbers of cells of Staphylococcus aureus ATCC12600 (1×10^8-1×10^12 cfu/plate) on Mueller-Hinton agar containing rifampin, myxopyronin B, or both, and counting numbers of colonies after 14 h at 37° C. Experiments were performed using (a) rifampin at 1×, 2×, or 4× the minimum inhibitory concentration of rifampin administered individually; (b) myxopyronin B at lx, 2×, or 4× the minimum inhibitory concentration of myxopyronin B administered individually; or (c) both rifampin at 1×, 2×, or 4× the minimum inhibitory concentration of rifampin administered individually and myxopyronin B at 1×, 2×, or 4× the minimum inhibitory concentration of myxopyronin B administered individually. All experiments were performed four times, using four different starting cultures.

[2] = test system: Escherichia coli D21f2tolC; type: cell-based; conditions: 2xMIC; for resistance rate per generation: MSS-MLE
Procedure: Spontaneous resistance frequencies in Escherichia coli were determined by plating defined numbers of cells of Escherichia coli D21f2tolC (1×10^8-1×10^12 cfu/plate) on LB agar containing rifampin, myxopyronin B, or both, and counting numbers of colonies after 24 h at 37° C. Experiments were performed using (a) rifampin at 2× the minimum inhibitory concentration of rifampin administered individually; (b) myxopyronin B at 2× the minimum inhibitory concentration of myxopyronin B administered individually; or (c) both rifampin at 2× the minimum inhibitory concentration of rifampin administered individually and myxopyronin B at 2× the minimum inhibitory concentration of myxopyronin B administered individually. All experiments were performed at least five times, using at least five different starting cultures. Resistance rates and 95% confidence intervals were calculated using the Ma-Sandri-Sarkar Maximum Likelihood Estimator (MSS-MLE; [Ma, W, Sandri, GvH., Sarkar, S. (1992. ) J. Appl. Probab. 29, 255-267; Sarkar, S., Ma, W., Sandri, GvH. (1992) Genetica 85, 173-179]) as implemented on the Fluctuation Analysis Calculator (FALCOR; http://www.keshaysingh.org/protocols/FALCOR.html; [Hall, B., Ma, C., Liang, P., Singh, K (2009) Bioinformatics 25, 1564-1565]). Sampling correction was performed as in [Stewart, F., Gordon, D., Levin, B. (1990) Genetics 124, 175-185; Jones, M. (1993) Mutat. Res. 292, 187-189].

Compound | spontaneous resistance frequency ([1]; 1xMIC) | spontaneous resistance frequency ([1]; 2xMIC) | spontaneous resistance frequency ([1]; 4xMIC) | spontaneous resistance frequency ([1]; mean of 1x, 2x, 4xMIC) | spontaneous resistance frequency [2] | resistance rate per generation [2]
CCCC/C(C)=C/C=C(\C)C(=O)c1c(O)cc([C@H](C)CC/C=C/NC(=O)OC)oc1=O [myxopyronin B] | 4 × 10^−8 | 7 × 10^−8 | 7 × 10^−8 | 6×10^−8 | 8×10^−10 | 3×10^−10 per generation
CO[C@H]1/C=C/O[C@@]2(C)Oc3c(C)c(O)c4c(O)c(c(/C=N/N5CCN(C)CC5)c(O)c4c3C2=O)NC(=O)/C(C)=C\C=C\[C@H](C)[C@H](O)[C@@H](C)[C@@H](O)[C@@H](C)[C@H](OC(C)=O)[C@@H]1C [rifampin] | 5 × 10^−8 | 6×10^−8 | 6 × 10^−8 | 6×10^−8 | 4×10^−9 | 1×10^−9 per generation
CCc1c(Cl)c(O)c(Cl)c(O)c1C(=O)O[C@H]1[C@H](O)[C@H](OC)[C@H](OC/C2=C\C=C\C[C@H](O)/C(C)=C/[C@H](CC)[C@@H](O[C@@H]3OC(C)(C)[C@@H](OC(=O)C(C)C)[C@H](O)[C@@H]3O)/C(C)=C/C(C)=C/C[C@@H]([C@@H](C)O)OC2=O)O[C@@H]1C [lipiarmycin A3] |  | 3×10^−8 |  |  |  | 
